Source: paper PMC4992173, “Divergent synthesis and identification of the cellular targets of deoxyelephantopins” (Nature Communications, 2016)

Legend:
[1] = tested on: 11 identified targets in MCF7 cells; experiment: Targeted in situ competitive profiling in live MCF7 cells, all 11 targets; assay type: cell-based, human; conditions: intact MCF7 cells, 20 µM, 4 h, then 10 µM 24c
Source text: (§1) In our efforts to determine the direct molecular targets of deoxyelephantopin we first performed a gel-based competitive in situ proteomic profiling assay[41] […] While the greater conformational flexibility of probe 24c could potentially lead to more promiscuous target engagement relatively to deoxyelephantopin, it was favoured based on the fact that an alkyne moiety appended to the rigid scaffold of deoxyelephantopin may hinder some of its interactions. MCF7 cells were pretreated with various concentrations of deoxyelephantopin for 4 h, harvested, lysed and the lysates were treated with the fluorogenic probe 24c-Cy3 (10 μM; Supplementary Fig. 10). […] Furthermore, cells were pretreated with 20 μM concentration of deoxyelephantopin or 24c and the proteomic profiles were compared (Fig. 6b, Supplementary Fig. 11). Multiple bands were detected that were equally competed by both DEP and 24c, thus again confirming that 24c can be used as an acceptable clickable analogue of deoxyelephantopin in pulldown assays. Having established the optimal labelling conditions by SDS–PAGE, we next carried out a mass spectrometry-based competitive profiling assay[42] coupled with the method of stable isotope labelling of amino acids in culture (SILAC)[43]. […]
(§2) Figure 6 Proteome-wide identification of deoxyelephantopin targets. […] Quantification was performed using label-free quantification (LFQ) method (n=4). […]

Cystatin-B (CSTB) = target: T1, Cystatin-B (CSTB) (Homo sapiens, UniProt P04080); experiment: In situ competitive profiling in live MCF7 cells (LFQ): CSTB; assay type: cell-based; conditions: protein CSTB, 4 h, then 10 µM 24c, n=4
T1 construct: endogenous in cells; host or cells: MCF7
Source text: as §1, §2

[2] = target: T2, Src substrate cortactin (CTTN) (Homo sapiens, UniProt Q14247); experiment: In situ competitive profiling in live MCF7 cells (LFQ): CTTN; assay type: cell-based; conditions: protein CTTN, 4 h, then 10 µM 24c, n=4
T2 construct: endogenous in cells; host or cells: MCF7
Source text: as §1, §2

T2 sequence (Q14247 whole entry): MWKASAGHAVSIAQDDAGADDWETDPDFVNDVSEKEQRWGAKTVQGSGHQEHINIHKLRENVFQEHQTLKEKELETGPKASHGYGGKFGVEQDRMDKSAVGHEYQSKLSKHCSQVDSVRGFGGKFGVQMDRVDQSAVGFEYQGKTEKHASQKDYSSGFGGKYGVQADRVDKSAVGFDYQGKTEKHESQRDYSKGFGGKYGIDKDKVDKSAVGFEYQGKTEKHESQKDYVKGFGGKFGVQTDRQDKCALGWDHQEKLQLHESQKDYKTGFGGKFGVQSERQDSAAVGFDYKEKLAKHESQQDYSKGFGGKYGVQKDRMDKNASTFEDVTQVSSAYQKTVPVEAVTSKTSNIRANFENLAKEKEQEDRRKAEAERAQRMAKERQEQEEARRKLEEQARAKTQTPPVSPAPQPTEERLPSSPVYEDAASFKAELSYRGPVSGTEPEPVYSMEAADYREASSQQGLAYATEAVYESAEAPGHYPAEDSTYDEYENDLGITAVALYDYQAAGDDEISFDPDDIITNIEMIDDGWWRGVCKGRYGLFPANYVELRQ
T1 sequence (P04080 whole entry): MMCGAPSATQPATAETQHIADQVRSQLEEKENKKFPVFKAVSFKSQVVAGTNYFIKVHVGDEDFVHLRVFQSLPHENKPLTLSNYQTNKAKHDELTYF

C=C(C)C(=O)O[C@H]1CC2=C[C@@H](C/C(C)=C/[C@H]3OC(=O)C(=C)[C@H]13)OC2=O [deoxyelephantopin]
competition of all 11 targets in situ [1]: > 70% | LFQ ratio 20 µM Deoxyelephantopin/DMSO with 24c (Cystatin-B (CSTB)): 0.28 | LFQ ratio 20 µM Deoxyelephantopin/DMSO with 24c [2]: 0.22
